Holding throughout (assay type): cell-based
Assay [1] has as its system Erysipelothrix insidiosa. Nature of the assay: Antibacterial growth inhibition in phenol red dextrose broth. Conditions: Erysipelothrix rhusiopathiae, 168 h; E. ins.; tested at 100, 10, 1 μg/ml; read-out: Concentration in μ g for 100% Growth Inhibition. On the procedure:
(§1) The tests on bacteria were performed on cultures on phenol red dextrose broth medium (Difco). By using decimal dilution techniques described for the tests for antifungal activity, test media containing 100 μg, 10 μg and 1 μg of imidazolium salt per milliliter of medium were obtained. The inoculum consisted of a platinum loop (5 mm diameter) from a 24 hour broth culture. Forty-eight hours after incubation, subcultures were made from each culture for the determination of antibacterial activity of the imidazolium salts. After seven days of incubation, observations were made to determine the presence or absence of bacterial growth.

Assay [2] has as its system Salmonella pullorum gallinarum. Described as above. To be noted: Salmonella enterica, 168 h; Sp. G.; tested at 100, 10, 1 μg/ml; read-out: Concentration in μ g for 100% Growth Inhibition. The protocol:
as §1

Assay [3] has as its system Staphylococcus hemolyticus. The assay is described as above. To be noted: 168 h, Staph., tested at 100, 10, 1 μg/ml, read-out: Concentration in μ g for 100% Growth Inhibition. On the procedure:
as §1

The subject of assay [4] is Pseudomonas aeruginosa. Described as above. Conditions: 168 h, Ps. aer., tested at 100, 10, 1 μg/ml, read-out: Concentration in μ g for 100% Growth Inhibition. The protocol: as §1
Assay [5] relates to Escherichia coli. The assay is described as above. Conditions: 168 h, E. coli, tested at 100, 10, 1 μg/ml, read-out: Concentration in μ g for 100% Growth Inhibition. The protocol:
as §1

For assay [6], the system named is Streptococcus pyogenes. Described as above. Conditions: 168 h, Strep., tested at 100, 10, 1 μg/ml, read-out: Concentration in μ g for 100% Growth Inhibition. On the procedure: as §1
The test system of assay [7] is Microsporum canis. Nature of the assay: Antifungal growth inhibition in Sabouraud's liquid medium. To be noted: Microsporum canis, 336 h; M.c.; tested at 100, 10, 1 μg/ml; read-out: Concentrations in μg/ml for 100% Inhibition of Growth. In short, it runs like this:
(§2)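 Compounds were tested in Sabouraud's liquid medium at final 100, 10 and 1 μg/ml against ethanol-matched controls; filamentous fungi were inoculated as 2 mm blocks and yeasts as 0.05 ml of 3-day culture, with incubation at 25° C for 14 days.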

For assay [8], the system named is Ctenomyces mentagrophytes. The assay is described as above. Conditions: Trichophyton mentagrophytes, 336 h; Ct.m.; tested at 100, 10, 1 μg/ml; read-out: Concentrations in μg/ml for 100% Inhibition of Growth. In short, it runs like this:
as §2

Assay [9] concerns Cryptococcus neoformans. The description is as above. To be noted: Cryptococcus neoformans, 336 h; Cr.n.; tested at 100, 10, 1 μg/ml; read-out: Concentrations in μg/ml for 100% Inhibition of Growth. The method in brief:
as §2

For assay [10], the system named is Trichophyton rubrum. Described as above. To be noted: Trichophyton rubrum, 336 h; Tr.r.; tested at 100, 10, 1 μg/ml; read-out: Concentrations in μg/ml for 100% Inhibition of Growth. In short, it runs like this:
as §2

Consider `Cc1ccc(OCC[n+]2ccn(CC(OCc3ccc(Cl)cc3Cl)c3ccc(Cl)cc3Cl)c2)cc1` (stereo not drawn) [(CH2)2OC6H4pCH3, 1-[2,4-dichloro-β-(2,4-dichlorobenzyloxy)phenethyl]-3-[2-(p-tolyoxy)ethyl]imidazolium bromide], for which the MIC in [1] was 1 µg/mL; in [2], 10 µg/mL; in assay [3], 1 µg/mL; in [4], 100 µg/mL; in assay [5], 10 µg/mL; in assay [6] it was 1 µg/mL. Also, the MIC stood at 10 µg/mL in [7], 10 µg/mL in [8], 10 µg/mL in assay [9] and 1 µg/mL in assay [10].

Regarding `Clc1ccc(COC(Cn2cc[n+](CCOc3ccccc3)c2)c2ccc(Cl)cc2Cl)c(Cl)c1.[Br-]` (stereo not drawn) [(CH2)2OC6H5, 1-[2,4-dichloro-β-(2,4-dichlorobenzyloxy)phenethyl]-3-(2-phenoxyethyl)imidazolium bromide], the MIC is 1 µg/mL in assay [1]; 10 µg/mL in [2]; 1 µg/mL in assay [3]; 100 µg/mL in assay [4]; 10 µg/mL in assay [5]; 1 µg/mL in [6]. In addition, the MIC in assay [7] is 10 µg/mL; in assay [8] it was 10 µg/mL; in assay [9], 10 µg/mL; in assay [10], 1 µg/mL.

With `Cc1ccc(C[n+]2ccn(CC(OCc3ccc(Cl)cc3Cl)c3ccc(Cl)cc3Cl)c2)cc1C.[Cl-]` (stereo not drawn) [CH2C6H33,4(CH3)2, 1-[2,4-Dichloro-β-(2,4-dichlorobenzyloxy)phenethyl]-3-(3,4-dimethylbenzyl)imidazolium chloride], the MIC in [1] amounted to 1 µg/mL; in [2], 10 µg/mL; in [3], 1 µg/mL; in assay [4] it was 100 µg/mL; in [5] it was 10 µg/mL; in assay [6], 1 µg/mL. Also, the MIC amounted to 10 µg/mL in [7], 1 µg/mL in assay [8], 10 µg/mL in assay [9] and 1 µg/mL in [10].

For the compound `OC(C[n+]1ccn(CC(OCc2ccc(Cl)cc2Cl)c2ccc(Cl)cc2Cl)c1)c1ccc(Cl)cc1Cl.[Cl-]` (stereo not drawn) [CH2CHOHC6H32,4(Cl)2, 1-[2,4-dichloro-β-(2,4-dichlorobenzyloxy)phenethyl]-3-(2,4dichloro-β-hydroxyphenethyl)imidazolium chloride], the MIC in assay [1] is 1 µg/mL; in assay [2] it was 10 µg/mL; in assay [3], 1 µg/mL; in [4] it was 100 µg/mL; in [5], 10 µg/mL; in assay [6], 1 µg/mL. The MIC in assay [7] was found to be 1 µg/mL; in assay [8], 1 µg/mL; in [9], 10 µg/mL; in [10], 1 µg/mL.

On to `O=C(C[n+]1ccn(CC(OCc2ccc(Cl)cc2Cl)c2ccc(Cl)cc2Cl)c1)c1ccc(F)cc1.[Cl-]` (stereo not drawn) [CH2COC6H4pF, 1-[2,4-dichloro-β-(2,4-dichlorobenzyloxy)phenethyl]-3-(p-fluorobenzoylmethyl)-imidazolium chloride], for which the MIC in [1] is 1 µg/mL; in [2] it was 10 µg/mL; in assay [3] it was 1 µg/mL; in [4] it was 100 µg/mL; in [5], 10 µg/mL; in assay [6], 1 µg/mL. Further, the MIC in assay [7] stood at 1 µg/mL; in assay [8], 1 µg/mL; in [9], 10 µg/mL; in assay [10], 1 µg/mL.

Regarding `Cc1ccccc1NC(=O)C[n+]1ccn(CC(OCc2ccc(Cl)cc2Cl)c2ccc(Cl)cc2Cl)c1` (stereo not drawn) [CH2CONHC6H4oCH3, 1-[2,4-Dichloro-β-(2,4-dichlorobenzyloxy)phenethyl]-3-(N-o-tolylcarbamoylmethyl)imidazolium chloride], the MIC was determined as 1 µg/mL in [1]; 10 µg/mL in assay [2]; 1 µg/mL in assay [3]; 100 µg/mL in assay [4]; 10 µg/mL in assay [5]; 1 µg/mL in assay [6]. Besides, the MIC came to 10 µg/mL in [7], 1 µg/mL in assay [8], 1 µg/mL in [9] and 1 µg/mL in assay [10].

Source of the values: patent publication US3991202A, “Imidazolium salts” (Janssen Pharmaceutica N.V., priority 1974, dated 1976).
